Test results from patent US6887876B2, “Benzamidine derivatives” (Ortho-McNeil Pharmaceutical, Inc., priority 2000, dated 2005).

Tests used:
[1] = system: acetylcholine bromide-induced abdominal constriction response; assay: Mouse acetylcholine bromide-induced abdominal constriction assay (MAIT); type: in vivo; conditions: po, 0.5 h, 150 μmole/Kg p.o., acetylcholine bromide 5.5 mg/kg i.p. 30 min later
Protocol: The mouse acetylcholine-induced abdominal constriction assay, as described by Collier et al. in […]., 32: 295-310, 1968 with minor modifications, was used to assess analgesic potency of the compounds of formula (I). The test drugs or appropriate vehicles were administered orally (p.o.) and 30 min later the animal received an intraperitoneal (i.p.) injection of 5.5 mg/kg acetylcholine bromide (Matheson, Coleman and Bell, East Rutherford, N.J.). The mice were then placed in groups of three into glass bell jars and observed for a ten min observation period for the occurrence of an abdominal constriction response (defined as a wave of constriction and elongation passing caudally along the abdominal wall, accompanied by a twisting of the trunk and followed by extension of the hind limbs). For compounds of the present invention, the percent inhibition of this response to a nociceptive stimulus (equated to % analgesia) was calculated as follows: [formula]

[2] = biological target: δ-opioid receptor (Rattus norvegicus, UniProt P33533); assay: Rat brain δ-opioid receptor binding assay ([3H]DPDPE)
Chain of δ-opioid receptor (Rattus norvegicus, UniProt P33533) (P33533 whole entry): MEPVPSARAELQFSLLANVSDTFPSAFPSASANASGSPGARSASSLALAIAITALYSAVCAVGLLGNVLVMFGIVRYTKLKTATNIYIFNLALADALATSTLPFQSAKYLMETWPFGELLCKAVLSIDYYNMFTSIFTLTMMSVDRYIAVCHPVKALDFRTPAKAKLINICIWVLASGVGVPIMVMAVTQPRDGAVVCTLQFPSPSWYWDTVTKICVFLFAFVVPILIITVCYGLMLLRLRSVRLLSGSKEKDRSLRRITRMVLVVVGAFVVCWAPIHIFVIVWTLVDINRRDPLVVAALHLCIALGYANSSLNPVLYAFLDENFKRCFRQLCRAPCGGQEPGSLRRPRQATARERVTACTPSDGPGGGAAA

[3] = biological target: T1, δ-opioid receptor (Homo sapiens, UniProt P41143); assay: Scintillation screening assay for δ-opioid receptor binding ([3H]bremazocine); conditions: cloned human receptor in CHO cell membranes, [3H]bremazocine 2.4 nM, read-out: δ-Opioid Receptor Binding (% Inhibition), % I @ 25 μM
T1 construct: purchased Receptor Biology, Baltimore, Md; host or cells: CHO cells (membranes)
T1 sequence (P41143 whole entry): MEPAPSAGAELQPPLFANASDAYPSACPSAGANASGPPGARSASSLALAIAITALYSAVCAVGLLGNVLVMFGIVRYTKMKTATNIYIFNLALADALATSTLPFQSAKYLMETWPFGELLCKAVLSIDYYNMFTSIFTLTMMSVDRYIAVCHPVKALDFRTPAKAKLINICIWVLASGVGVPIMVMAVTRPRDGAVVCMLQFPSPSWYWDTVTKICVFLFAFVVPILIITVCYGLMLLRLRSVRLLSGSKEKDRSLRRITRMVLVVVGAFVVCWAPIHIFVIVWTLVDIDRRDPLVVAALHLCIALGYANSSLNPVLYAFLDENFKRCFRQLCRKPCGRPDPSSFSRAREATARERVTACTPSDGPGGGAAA
From the text: Scintillation Screening Assay for δ-Opioid Receptor Binding
This is a receptor based screen to detect the competitive binding of test compounds at the δ-opioid receptor against the radioligand, [^3H]bremazocine (S.A.=25.5 Cl/mmol, Dupont/NEN, Cambridge, Mass.). Unknown compounds that bind to the same receptor as the radioligand will compete for the receptor and reduce the amount of radioligand which binds to the receptor. This is detected as a decreased scintillation signal from that particular incubation. The greater affinity an unknown has for the receptor, the larger the observed decrease in […] to the receptor; thus the assay is in the format of an inhibition study.
The receptor is a cloned human cDNA expressed in mammalian CHO cells. Membranes prepared from these cells are purchased from Receptor Biology, Baltimore, Md. The reaction buffer is composed as follows: HEPES (50 mM final), MgCl.6H2O (5 mM final), o-phenanthroline (20 mg/l), aprotinin (10 mg/l), Pefabloc SC (250 mg/l), leupeptin (0.5 mg/l), pepstatin A (0.7 mg/l), trypsin inhibitor (25 mg/l), chymostatin (10 mg/l), pH=7.2. Naloxone, 10 uM, is used to define non-specific binding. The assay employs filtration to capture receptor and bound ligand.
The receptor (membrane) preparation (28 ug protein) is allowed to incubate with the opioid receptor radioligand ([^3H]bremazocine, 2.4 nM) in 96-well plates until equilibrium is reached (>2 hr). Following incubation with the radioligand at 23° C., the well contents are filtered onto 96-well Whatman GF/C filter plates using a Packard cell harvester. Radioligand bound to the receptor also remains on the filter. The filters are rinsed three times with 0.5 mL of physiological saline (0.9% NaCl) to remove any unbound radioligand from the filter. Filters are dried and scintillation fluid is then added to the filters which emits light in proportion to the amount of radioactivity on the filter which is determined using an Packard Topcount scintillation counter. Data are reported as percent inhibition of control binding.

[4] = biological target: μ-opioid receptor (Rattus norvegicus, UniProt P33535); assay: Rat brain μ-opioid receptor binding assay ([3H]DAMGO)
Chain of μ-opioid receptor (P33535 whole entry): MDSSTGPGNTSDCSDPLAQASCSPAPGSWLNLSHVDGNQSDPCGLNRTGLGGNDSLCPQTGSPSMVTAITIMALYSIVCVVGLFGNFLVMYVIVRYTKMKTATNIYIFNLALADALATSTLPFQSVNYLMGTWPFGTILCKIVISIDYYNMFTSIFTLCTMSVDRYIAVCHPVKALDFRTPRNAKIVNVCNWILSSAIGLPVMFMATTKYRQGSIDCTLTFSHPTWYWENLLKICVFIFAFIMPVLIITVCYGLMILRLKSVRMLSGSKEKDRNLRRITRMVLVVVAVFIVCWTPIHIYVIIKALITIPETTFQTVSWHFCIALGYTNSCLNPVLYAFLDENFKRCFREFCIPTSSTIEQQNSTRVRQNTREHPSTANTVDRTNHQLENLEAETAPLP

Compound `CCN1CCN(C(=Nc2ccccc2F)c2ccc(C(=O)N(CC)CC)cc2)CC1` [Compound 10, N,N-diethyl-4-[(4-ethyl-1-piperazinyl)[(2-fluorophenyl)imino]methyl]-benzamide] has an inhibition in vivo at 150 µmol/kg [1] of 26.7%, a Ki [2] of 118 nM and an inhibition at 25 µM [3] of 102%. For the same compound, the Ki [4] was over 10 µM.
